These results are taken from ChEMBL document CHEMBL1201862, “PubChem BioAssay data set” (2004).

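Method: 48-hour compound exposure of cells in 96-well plates, five concentrations, linear interpolation of endpoints. GI50: concentration for 50% inhibition of growth.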 Active and inactive are the calls of the source. Rule as the data show it: active = GI50 up to about 1.1 µM and inactive = higher. A value given as a limit tells only on which side of the number the result lay.

Assay in all cases: NCI anticancer screen, dose series, 48 h
Assay [1] relates to A549.
Assay [2] concerns HCT-15.
In assay [3] the test system is Hs-578T.
In assay [4] the test system is IGROV-1.
Assay [5] relates to KM12.
Assay [6] concerns M14.
In assay [7] the test system is MDA-MB-435.
The test system of assay [8] is NCI-H23.
Assay [9] deals with OVCAR-5.
Assay [10] concerns OVCAR-8.
The subject of assay [11] is RXF 393.
Assay [12] deals with SF-268.
Assay [13] deals with SK-MEL-2.
The test system of assay [14] is SN12C.
Assay [15] has as its system UACC-257.
In assay [16] the test system is UACC-62.
Assay [17] relates to COLO 205.
The test system of assay [18] is MDA-MB-231.
The test system of assay [19] is CCRF-CEM.
The subject of assay [20] is HOP-92.

As to `CC(C)(C)OC(=O)NC(Cc1ccccc1)NC(=O)NC(=O)OCc1ccccc1` (stereo not drawn), the GI50 is 70.8 µM (inactive) in [1]; above 100 µM in [2]; 44 µM (inactive) in assay [3]; > 100 µM (inactive) in assay [4]; 59.8 µM (inactive) in [5]; 57.7 µM (inactive) in assay [6]. Besides, the GI50 was > 100 µM (inactive) in assay [7]; 87.9 µM (inactive) in assay [8]; > 100 µM (inactive) in [9]; 55.5 µM (inactive) in assay [10]; 22 µM (inactive) in assay [11]; 40.3 µM (inactive) in [12]. Further, the GI50 in assay [13] was 34.3 µM (inactive); in assay [14], > 100 µM (inactive); in assay [15], 81.3 µM (inactive); in assay [16], 25.3 µM (inactive).

For `Cc1cc(S(=O)(=O)N=C2NCC(C)(C)CN2)c(S)cc1Cl`, the GI50 in assay [1] is 19 µM (inactive); in assay [17], 47.3 µM (inactive); in assay [2] it was 42.7 µM; in assay [3], 32 µM (inactive); in assay [4], 38.9 µM (inactive); in assay [5] it was 30.8 µM (inactive). Besides, the GI50 in assay [6] is 31.9 µM (inactive); in [18], 43.4 µM (inactive); in assay [7], 23.2 µM (inactive); in assay [9], 23.1 µM (inactive); in [10], 27 µM (inactive); in assay [11] it was 38 µM (inactive). The GI50 in assay [12] was 73.3 µM (inactive); in [13], 21.3 µM (inactive); in [14], 47.1 µM (inactive); in [15] it was 42.3 µM (inactive); in assay [16], 25.3 µM (inactive).

Regarding `CN(C)C(n1cc2c(c1)-c1ccc(Cl)cc1C(c1ccccc1F)=NC2)n1cc2c(c1)-c1ccc(Cl)cc1C(c1ccccc1F)=NC2`, the GI50 in assay [1] is 52.4 µM (inactive); in assay [19], > 100 µM (inactive); in assay [17], > 100 µM (inactive); in assay [2], above 100 µM; in assay [3] it was > 100 µM (inactive); in assay [4], > 100 µM (inactive). Also, the GI50 in assay [6] was 93.1 µM (inactive); in assay [18], > 100 µM (inactive); in assay [7], > 100 µM (inactive); in assay [8], 3.31 µM (inactive); in assay [9], 20.2 µM (inactive); in [10], > 100 µM (inactive). The GI50 was 20.2 µM (inactive) in [11]; 36 µM (inactive) in assay [12]; > 100 µM (inactive) in assay [13]; > 100 µM (inactive) in assay [14]; > 100 µM (inactive) in [15]; > 100 µM (inactive) in [16].

On to `O=C(O)CN1C(=O)C(Cc2ccc(O)cc2)N=C(c2cccc(O)c2)c2ccccc21` (stereo not drawn), for which the GI50 was > 100 µM (inactive) in [1]; above 100 µM in [2]; > 100 µM (inactive) in [20]; > 100 µM (inactive) in [3]; > 100 µM (inactive) in [4]; > 100 µM (inactive) in [5]. The GI50 in assay [6], in assay [18], in [7], in assay [9], in assay [10] and in assay [12] was > 100 µM (inactive) in each case. In addition, the GI50 was > 100 µM (inactive) in assay [13], 19 µM (inactive) in [14], > 100 µM (inactive) in assay [15] and > 100 µM (inactive) in assay [16].

As for `COC(=O)[C@H]1ON2O[C@@H](O[C@H]3CCCC[C@@H]3C(C)(C)c3ccccc3)C[C@@H]3CC[C@H]1[C@@]32C`, the GI50 in assay [1] was > 100 µM (inactive); in [19] it was > 100 µM (inactive); in assay [17] it was > 100 µM (inactive); in [2], above 100 µM; in [20], > 100 µM (inactive); in assay [3] it was > 100 µM (inactive). The GI50 in [4], in assay [5], in [6], in [7], in assay [8] and in assay [9] was > 100 µM (inactive) in each case. Moreover, the GI50 in assay [10], in assay [11], in assay [12], in assay [14], in [15] and in [16] was > 100 µM (inactive) each time.

With `O=C(/C=C(\C(=O)c1cccs1)c1cccs1)c1ccc(C(=O)/C=C(\C(=O)c2cccs2)c2cccs2)cc1`, the GI50 in [1] is > 100 µM (inactive); in assay [19], > 100 µM (inactive); in [17] it was > 100 µM (inactive); in assay [2], above 100 µM; in assay [3], > 100 µM (inactive); in assay [4], > 100 µM (inactive). Besides, the GI50 in assay [5], in [6], in assay [18], in assay [7], in [10] and in [11] was > 100 µM (inactive) in each case. For the same molecule, the GI50 in assay [12], in [13], in [14], in [15] and in assay [16] was > 100 µM (inactive) each time.

On to `O=[N+]([O-])C(C(Cl)=C(Cl)Cl)=C(N1CCCCC1)N1CCCCC1`, for which the GI50 in [1] is > 100 µM (inactive); in [19], 41.9 µM (inactive); in [17] it was > 100 µM (inactive); in assay [2] it was above 100 µM; in [3] it was 13.8 µM (inactive); in [4] it was 69.5 µM (inactive). The GI50 in assay [5], in assay [6], in [18], in assay [8], in assay [9] and in assay [10] was > 100 µM (inactive) in each case. For the same molecule, the GI50 in [11] was 63.1 µM (inactive); in assay [12], > 100 µM (inactive); in assay [14], > 100 µM (inactive); in assay [15], 63.4 µM (inactive); in [16], > 100 µM (inactive).

On to `Nc1c(C(=O)O)nnc2cc(Cl)ccc12`, for which the GI50 in [1] was > 100 µM (inactive); in assay [19], > 100 µM (inactive); in assay [17] it was > 100 µM (inactive); in assay [2] it was above 100 µM; in assay [3] it was > 100 µM (inactive); in assay [4], > 100 µM (inactive). For the same molecule, the GI50 in assay [5], in assay [6], in assay [18], in assay [7], in assay [8] and in assay [9] was > 100 µM (inactive) each time. The GI50 in assay [10] is > 100 µM (inactive); in [12], > 100 µM (inactive); in assay [13] it was > 100 µM (inactive); in assay [14], > 100 µM (inactive); in [15], > 100 µM (inactive); in assay [16], 32 µM (inactive).

Regarding `O=C(Nc1nnc(-c2ccccc2)o1)C(SC(=S)N1CCCC1)c1ccccc1` (stereo not drawn), the GI50 was 26.4 µM (inactive) in [1]; 13.4 µM (inactive) in [19]; 37.2 µM (inactive) in assay [17]; 6.9 µM in [2]; 87.9 µM (inactive) in [3]; 22.9 µM (inactive) in assay [4]. The GI50 in [5] is 32.8 µM (inactive); in [6], 23.6 µM (inactive); in assay [18], 39 µM (inactive); in assay [7], 29.7 µM (inactive); in [8], 24.3 µM (inactive); in assay [9], 36.4 µM (inactive). For the same molecule, the GI50 in [10] was 32 µM (inactive); in assay [11] it was 40.3 µM (inactive); in assay [13] it was 25.5 µM (inactive); in assay [14] it was 16.7 µM (inactive); in assay [15] it was 37 µM (inactive).

Regarding `CCCCCCCCCC[C@@H](O)[C@@H]1CC[C@@H]([C@@H]2CC[C@@H]([C@@H](O)CCCCCCCCCC[C@H](O)CC3=CC(C)OC3=O)O2)O1` (stereo partly drawn), the GI50 in assay [1] was 1.73 µM (inactive); in assay [19], 1.5 µM (inactive); in assay [17], 3.94 µM (inactive); in [2] it was 3.45 µM; in assay [20], 2.26 µM (inactive); in [3] it was 4.04 µM (inactive). In addition, the GI50 was 3.48 µM (inactive) in [4]; 2.16 µM (inactive) in [5]; 3.71 µM (inactive) in [6]; 1.09 µM (active) in assay [7]; 9.25 µM (inactive) in assay [9]; 2.65 µM (inactive) in assay [10]. For the same molecule, the GI50 in assay [11] is 3.22 µM (inactive); in assay [12], 3.87 µM (inactive); in assay [13] it was 6.71 µM (inactive); in assay [14] it was 5.62 µM (inactive); in assay [15] it was 0.356 µM (active); in assay [16], 1.44 µM (inactive).

Take `C=C1C(=O)O[C@@H]2[C@H]1CC[C@H](C)[C@]1(O)CCC(=O)[C@@]21C` [CORONOPILIN]: the GI50 in assay [1] was > 10 µM (inactive); in assay [19], 4.69 µM (inactive); in [17], > 10 µM (inactive); in assay [2] it was above 10 µM; in assay [20], > 10 µM (inactive); in assay [3], > 10 µM (inactive). Further, the GI50 in [4] is > 10 µM (inactive); in [5] it was > 10 µM (inactive); in assay [7], > 10 µM (inactive); in [8], 4.16 µM (inactive); in assay [10], > 10 µM (inactive); in assay [11], > 10 µM (inactive). For the same molecule, the GI50 in assay [12], in assay [13], in assay [14] and in assay [16] was > 10 µM (inactive) in each case.
